What is called IC50 is the midpoint of a concentration-inhibition curve.

These results are taken from patent publication US11174268B2, “Benzenesulfonamide compouds and their use as therapeutic agents” (Xenon Pharmaceuticals Inc., priority 2016, dated 2021).

One series deals with NaV1.6 (Homo sapiens (Human), UniProt Q9UQD0). In words: Sodium Influx Assay (Flux), NaV1.6.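 Further: Tetracycline-induced cells, compounds applied for one hour at room temperature with modulators holding channels open, IC50 from percent inhibition of sodium influx.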 It counts as cell-based. The conditions noted are these: Trex HEK293 cells, ANG2 dye, inactivated state.
For a further series, the target named is NaV1.1 (Homo sapiens (Human), UniProt P35498). In words: Sodium Influx Assay (Flux), NaV1.1.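 Further: channels co-expressed with human β1 subunit and held open by modulators, cells exposed to compounds for one hour at room temperature, IC50 from percent inhibition of influx.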 Type of series: cell-based. The conditions noted are these: Trex HEK293 cells, ANG2 dye, inactivated state.
Another series addresses NaV1.5 (Homo sapiens (Human), UniProt Q14524). In words: Sodium Influx Assay (Flux), NaV1.5. The note with it: read-out: Flux NaV1.5 IC50; Trex HEK293 cells, ANG2 dye, inactivated state.

Sequence of NaV1.5 (Q14524 other isoform, or with tags, fused parts or gaps): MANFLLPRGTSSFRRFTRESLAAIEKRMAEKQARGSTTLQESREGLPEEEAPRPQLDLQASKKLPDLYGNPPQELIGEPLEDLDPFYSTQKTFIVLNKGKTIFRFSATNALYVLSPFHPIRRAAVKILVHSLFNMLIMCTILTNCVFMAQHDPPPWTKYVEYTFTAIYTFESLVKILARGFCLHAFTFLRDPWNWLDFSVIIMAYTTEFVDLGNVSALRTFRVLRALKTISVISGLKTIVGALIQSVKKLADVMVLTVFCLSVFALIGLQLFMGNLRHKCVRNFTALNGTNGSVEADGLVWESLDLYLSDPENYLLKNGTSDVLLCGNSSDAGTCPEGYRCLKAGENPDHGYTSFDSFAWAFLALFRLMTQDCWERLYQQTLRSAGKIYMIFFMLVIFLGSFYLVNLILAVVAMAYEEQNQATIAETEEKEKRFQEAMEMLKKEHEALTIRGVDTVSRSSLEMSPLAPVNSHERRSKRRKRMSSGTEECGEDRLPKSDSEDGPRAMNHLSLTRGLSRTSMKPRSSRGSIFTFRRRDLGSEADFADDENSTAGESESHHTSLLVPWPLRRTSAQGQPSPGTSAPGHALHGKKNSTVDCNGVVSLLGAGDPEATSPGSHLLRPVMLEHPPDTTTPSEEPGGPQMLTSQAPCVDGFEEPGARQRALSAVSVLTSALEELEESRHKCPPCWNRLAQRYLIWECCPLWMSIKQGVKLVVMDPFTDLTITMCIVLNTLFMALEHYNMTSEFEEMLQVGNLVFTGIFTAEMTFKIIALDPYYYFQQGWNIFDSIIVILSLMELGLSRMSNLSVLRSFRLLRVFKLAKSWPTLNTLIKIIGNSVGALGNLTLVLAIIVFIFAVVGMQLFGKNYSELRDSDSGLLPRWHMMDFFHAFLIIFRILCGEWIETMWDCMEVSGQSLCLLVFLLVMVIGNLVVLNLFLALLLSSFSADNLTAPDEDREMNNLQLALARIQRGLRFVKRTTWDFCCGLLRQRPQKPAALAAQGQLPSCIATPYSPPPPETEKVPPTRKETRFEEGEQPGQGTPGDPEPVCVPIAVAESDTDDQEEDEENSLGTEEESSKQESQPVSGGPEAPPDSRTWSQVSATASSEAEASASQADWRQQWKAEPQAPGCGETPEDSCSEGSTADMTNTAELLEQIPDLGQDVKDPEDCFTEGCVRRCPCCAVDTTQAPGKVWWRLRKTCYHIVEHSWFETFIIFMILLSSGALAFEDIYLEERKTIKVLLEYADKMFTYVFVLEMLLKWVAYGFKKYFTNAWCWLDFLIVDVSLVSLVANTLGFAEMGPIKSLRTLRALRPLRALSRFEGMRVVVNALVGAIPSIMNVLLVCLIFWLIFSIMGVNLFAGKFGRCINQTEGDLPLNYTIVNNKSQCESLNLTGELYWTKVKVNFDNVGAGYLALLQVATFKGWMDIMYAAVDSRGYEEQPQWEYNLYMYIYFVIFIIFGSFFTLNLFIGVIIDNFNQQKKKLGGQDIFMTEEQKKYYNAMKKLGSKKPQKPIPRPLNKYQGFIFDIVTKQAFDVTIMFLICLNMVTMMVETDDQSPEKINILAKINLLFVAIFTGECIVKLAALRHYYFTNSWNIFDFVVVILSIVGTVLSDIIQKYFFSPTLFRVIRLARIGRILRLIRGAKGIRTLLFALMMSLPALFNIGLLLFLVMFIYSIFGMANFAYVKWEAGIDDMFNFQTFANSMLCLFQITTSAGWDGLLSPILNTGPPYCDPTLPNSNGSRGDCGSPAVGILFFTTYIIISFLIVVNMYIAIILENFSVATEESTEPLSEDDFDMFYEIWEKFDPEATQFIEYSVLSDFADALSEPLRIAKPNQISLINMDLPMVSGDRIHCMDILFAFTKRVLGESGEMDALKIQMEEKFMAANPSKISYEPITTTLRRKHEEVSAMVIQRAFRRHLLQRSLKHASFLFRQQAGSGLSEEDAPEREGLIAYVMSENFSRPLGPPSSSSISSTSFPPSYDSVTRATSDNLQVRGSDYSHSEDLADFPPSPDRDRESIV

Regarding `C[C@H](Nc1ccc(S(=O)(=O)Nc2cscn2)cc1C#N)c1ccccc1F` [Example 239, (S)-3-cyano-4-((1-(2-fluorophenyl)ethyl)amino)-N-(thiazol-4-yl)benzenesulfonamide], the IC50 against NaV1.6 stood at 1.65 µM; at NaV1.1, 27 µM; at NaV1.5, 28.9 µM.

Take `C[C@H](Nc1cc(F)c(S(=O)(=O)Nc2ccon2)c(F)c1)c1cc(F)ccc1F` [Example 240, (S)-4-((1-(2,5-difluorophenyl)ethyl)amino)-2,6-difluoro-N-(isoxazol-3-yl)benzenesulfonamide]: the concentration for half-maximal inhibition (IC50) against NaV1.6 turned out to be 3.17 µM; on NaV1.1, 30 µM; at NaV1.5 it was 30 µM.

With `O=S(=O)(Nc1ccncn1)c1cc(Cl)c(NC2(c3cc(F)ccc3F)CC2)cc1F` [Example 241, 5-chloro-4-((1-(2,5-difluorophenyl)cyclopropyl)amino)-2-fluoro-N-(pyrimidin-4-yl)benzenesulfonamide], the half-inhibitory concentration (IC50) came out at 2.36 µM against NaV1.6, 26.8 µM at NaV1.1 and 30 µM at NaV1.5.

In the case of `O=S(=O)(Nc1ccncn1)c1cc(Cl)c(NC2(c3ccccc3F)CC2)cc1F` [Example 242, 5-chloro-2-fluoro-4-((1-(2-fluorophenyl)cyclopropyl)amino)-N-(pyrimidin-4-yl)benzenesulfonamide], the IC50 turned out to be 1.95 µM at NaV1.6, 30 µM on NaV1.1 and 30 µM at NaV1.5.

Consider `Cc1cc(NS(=O)(=O)c2cc(Cl)c(N[C@@H](C)c3ccccc3Cl)cc2F)ncn1` [Example 244, (S)-5-chloro-4-((1-(2-chlorophenyl)ethyl)amino)-2-fluoro-N-(6-methylpyrimidin-4-yl)benzenesulfonamide], for which the values for the half-maximal inhibitory concentration (IC50) against NaV1.6, against NaV1.1 and at NaV1.5 were 4.28 µM, 30 µM and 22.2 µM, respectively.

For `C[C@H](Nc1cc(F)c(S(=O)(=O)Nc2ccnc(C(F)(F)F)n2)cc1Cl)c1ccccc1Cl` [Example 245, (S)-5-chloro-4-((1-(2-chlorophenyl)ethyl)amino)-2-fluoro-N-(2-(trifluoromethyl)pyrimidin-4-yl)benzenesulfonamide], the half-inhibitory concentration (IC50) was 5.38 µM against NaV1.6, 10.5 µM on NaV1.1 and 6.55 µM on NaV1.5.

With `COC1CN(Cc2cccc(F)c2CNc2cc(F)c(S(=O)(=O)Nc3cscn3)cc2Cl)C1` [Example 248, 5-chloro-2-fluoro-4-((2-fluoro-6-((3-methoxyazetidin-1-yl)methyl)benzyl)amino)-N-(thiazol-4-yl)benzenesulfonamide 2,2,2-trifluoroacetate], the concentration for half-maximal inhibition (IC50) worked out at 0.431 µM against NaV1.6, 21.4 µM on NaV1.1 and 26.5 µM on NaV1.5.

For `CN(C)Cc1cccc(F)c1CNc1cc(F)c(S(=O)(=O)Nc2cscn2)cc1Cl` [Example 249, 5-chloro-4-((2-((dimethylamino)methyl)-6-fluorobenzyl)amino)-2-fluoro-N-(thiazol-4-yl)benzenesulfonamide 2,2,2-trifluoroacetate], the concentration for half-maximal inhibition (IC50) stood at 0.163 µM against NaV1.6, 30 µM against NaV1.1 and 30 µM on NaV1.5.

For `O=S(=O)(Nc1cscn1)c1cc(Cl)c(NCc2c(F)cccc2CN2CCOCC2)cc1F` [Example 250, 5-chloro-2-fluoro-4-((2-fluoro-6-(morpholinomethyl)benzyl)amino)-N-(thiazol-4-yl)benzenesulfonamide], the values for the IC50 against NaV1.6, on NaV1.1 and on NaV1.5 were 9.06 µM, 23.6 µM and 30 µM, respectively.

As to `O=S(=O)(Nc1cscn1)c1cc(Cl)c(NCc2c(F)cccc2CN2CCC(F)(F)CC2)cc1F` [Example 251, 5-chloro-4-((2-((4,4-difluoropiperidin-1-yl)methyl)-6-fluorobenzyl)amino)-2-fluoro-N-(thiazol-4-yl)benzenesulfonamide], the results for the IC50 against NaV1.6, against NaV1.1 and at NaV1.5 were 3.71 µM, 8.68 µM and 3.35 µM, respectively.
